IC50 data for ten molecules are collected here from patent US12492188B2, “1H-benzo[D]imidazole derivatives as TLR9 inhibitors for the treatment of fibrosis” (BRISTOL-MYERS SQUIBB COMPANY, priority 2020, dated 2025).

pIC50: −log10 of the molar value. Like-named read-outs stand apart in the source and are kept apart here.

Holding throughout (assay type): cell-based
In assay [1] the target is T1, human TLR8 (Homo sapiens, UniProt Q9NR97).
T1 construct: host or cells: HEK-Blue cells (HEK293-derived reporter line)
T1 sequence (Q9NR97 27-1041): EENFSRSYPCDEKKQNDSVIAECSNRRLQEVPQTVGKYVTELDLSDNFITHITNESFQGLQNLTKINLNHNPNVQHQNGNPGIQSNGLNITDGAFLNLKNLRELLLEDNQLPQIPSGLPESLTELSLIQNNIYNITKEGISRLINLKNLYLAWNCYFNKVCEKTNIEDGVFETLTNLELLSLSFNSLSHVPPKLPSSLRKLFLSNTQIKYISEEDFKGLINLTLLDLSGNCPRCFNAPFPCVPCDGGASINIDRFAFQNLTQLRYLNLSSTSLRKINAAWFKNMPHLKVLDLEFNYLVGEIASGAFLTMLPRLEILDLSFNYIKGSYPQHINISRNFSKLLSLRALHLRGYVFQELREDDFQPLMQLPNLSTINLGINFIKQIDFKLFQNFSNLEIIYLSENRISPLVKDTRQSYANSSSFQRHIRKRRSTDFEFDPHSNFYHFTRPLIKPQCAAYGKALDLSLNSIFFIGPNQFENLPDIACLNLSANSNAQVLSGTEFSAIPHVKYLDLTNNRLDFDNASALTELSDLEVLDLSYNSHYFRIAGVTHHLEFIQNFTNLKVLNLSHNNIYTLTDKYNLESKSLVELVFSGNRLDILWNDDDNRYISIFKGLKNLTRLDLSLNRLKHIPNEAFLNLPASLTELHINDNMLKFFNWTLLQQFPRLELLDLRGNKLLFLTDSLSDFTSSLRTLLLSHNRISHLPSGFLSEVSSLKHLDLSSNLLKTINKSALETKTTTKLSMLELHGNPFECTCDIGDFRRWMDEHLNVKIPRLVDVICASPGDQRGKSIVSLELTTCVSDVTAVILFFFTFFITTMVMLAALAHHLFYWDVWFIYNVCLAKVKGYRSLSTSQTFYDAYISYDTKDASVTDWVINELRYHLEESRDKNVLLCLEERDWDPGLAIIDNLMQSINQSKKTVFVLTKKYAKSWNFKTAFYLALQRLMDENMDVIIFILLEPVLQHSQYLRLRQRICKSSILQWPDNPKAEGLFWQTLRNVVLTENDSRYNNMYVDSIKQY
Nature of the assay: TLR8 inhibition reporter assay (HEK-Blue cells, secreted embryonic alkaline phosphatase reporter). The note with it: HEK-Blue cells overexpressing human TLR8, stimulated with R848 15.9 μM; read-out: TLR 8 IC50. In outline: (§1)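 HEK-Blue cells expressing human TLR7, TLR8 or TLR9 with an NF-κB/AP-1-driven SEAP reporter were pretreated with compound (0.05 nM–50 μM final) for 30 min at room temperature. Agonists were gardiquimod 7.5 μM for TLR7, R848 15.9 μM for TLR8 and ODN2006 5 nM for TLR9. SEAP was read after 22 h at 37 °C, and inhibition was calculated relative to agonist-plus-DMSO and known-inhibitor controls.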

In assay [2] the target is T2, human TLR7 (Homo sapiens, UniProt Q9NYK1).
T2 construct: host or cells: HEK-Blue cells (HEK293-derived reporter line)
T2 sequence (Q9NYK1 27-1049): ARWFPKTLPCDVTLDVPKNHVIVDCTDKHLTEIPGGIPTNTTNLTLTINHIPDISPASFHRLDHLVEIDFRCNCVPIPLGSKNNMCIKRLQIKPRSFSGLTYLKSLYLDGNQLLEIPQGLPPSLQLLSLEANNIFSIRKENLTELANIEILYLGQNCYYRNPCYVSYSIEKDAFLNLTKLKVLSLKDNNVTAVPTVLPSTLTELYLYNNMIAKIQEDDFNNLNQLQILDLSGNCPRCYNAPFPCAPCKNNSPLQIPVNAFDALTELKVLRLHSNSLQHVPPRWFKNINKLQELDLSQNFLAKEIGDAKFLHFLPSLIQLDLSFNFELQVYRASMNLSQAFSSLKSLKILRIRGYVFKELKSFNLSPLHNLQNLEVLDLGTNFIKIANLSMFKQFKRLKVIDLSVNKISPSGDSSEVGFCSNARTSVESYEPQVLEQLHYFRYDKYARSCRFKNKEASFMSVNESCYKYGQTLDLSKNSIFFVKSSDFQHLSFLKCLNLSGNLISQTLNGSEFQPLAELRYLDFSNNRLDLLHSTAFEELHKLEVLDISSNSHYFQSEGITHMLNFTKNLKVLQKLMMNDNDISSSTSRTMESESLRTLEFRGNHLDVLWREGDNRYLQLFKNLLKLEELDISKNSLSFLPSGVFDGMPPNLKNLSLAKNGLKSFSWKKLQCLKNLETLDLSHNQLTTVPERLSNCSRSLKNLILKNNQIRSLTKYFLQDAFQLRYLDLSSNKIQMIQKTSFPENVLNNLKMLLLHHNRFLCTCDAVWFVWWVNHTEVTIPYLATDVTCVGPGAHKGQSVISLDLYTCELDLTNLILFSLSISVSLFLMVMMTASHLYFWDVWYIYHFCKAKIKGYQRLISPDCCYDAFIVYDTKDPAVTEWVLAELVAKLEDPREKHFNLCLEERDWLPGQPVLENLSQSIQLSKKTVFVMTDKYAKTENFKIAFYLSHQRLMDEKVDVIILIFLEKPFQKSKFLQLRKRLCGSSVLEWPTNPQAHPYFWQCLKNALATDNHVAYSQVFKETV
Nature of the assay: TLR7 inhibition reporter assay (HEK-Blue cells, secreted embryonic alkaline phosphatase reporter). The conditions noted are these: HEK-Blue cells overexpressing human TLR7, stimulated with gardiquimod 7.5 μM; read-out: TLR 7 IC50. In outline: as §1
(In a reporter assay the amount or activity of a reporter protein is the signal.)

For assay [3], the target named is T3, human TLR9 (Homo sapiens, UniProt Q9NR96).
T3 construct: host or cells: HEK-Blue cells (HEK293-derived reporter line)
T3 sequence (Q9NR96 26-1032): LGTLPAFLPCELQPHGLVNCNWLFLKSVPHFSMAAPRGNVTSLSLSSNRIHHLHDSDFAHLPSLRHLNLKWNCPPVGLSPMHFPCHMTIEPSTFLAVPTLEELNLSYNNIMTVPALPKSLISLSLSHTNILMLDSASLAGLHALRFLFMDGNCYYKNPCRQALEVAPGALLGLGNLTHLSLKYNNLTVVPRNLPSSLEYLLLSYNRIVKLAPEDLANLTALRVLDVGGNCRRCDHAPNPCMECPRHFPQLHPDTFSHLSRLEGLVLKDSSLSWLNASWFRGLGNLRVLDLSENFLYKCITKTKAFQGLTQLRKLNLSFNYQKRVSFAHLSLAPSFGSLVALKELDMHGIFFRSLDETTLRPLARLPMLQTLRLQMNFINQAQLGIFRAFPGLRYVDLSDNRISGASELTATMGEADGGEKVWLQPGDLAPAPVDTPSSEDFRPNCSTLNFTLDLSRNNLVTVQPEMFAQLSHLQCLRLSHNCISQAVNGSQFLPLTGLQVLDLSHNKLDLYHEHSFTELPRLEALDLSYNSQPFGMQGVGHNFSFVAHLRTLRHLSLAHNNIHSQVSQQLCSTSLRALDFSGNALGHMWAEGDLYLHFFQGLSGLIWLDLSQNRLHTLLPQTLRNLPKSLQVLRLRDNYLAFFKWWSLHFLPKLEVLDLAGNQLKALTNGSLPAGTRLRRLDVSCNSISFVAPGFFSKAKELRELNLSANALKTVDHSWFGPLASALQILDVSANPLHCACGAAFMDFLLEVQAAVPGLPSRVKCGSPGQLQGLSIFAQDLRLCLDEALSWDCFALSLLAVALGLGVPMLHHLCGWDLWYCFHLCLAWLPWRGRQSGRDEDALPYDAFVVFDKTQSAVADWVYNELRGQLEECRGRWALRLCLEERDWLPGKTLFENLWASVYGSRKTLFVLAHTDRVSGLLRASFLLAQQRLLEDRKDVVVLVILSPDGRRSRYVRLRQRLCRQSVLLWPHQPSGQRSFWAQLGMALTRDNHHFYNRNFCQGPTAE
Nature of the assay: TLR9 inhibition reporter assay (HEK-Blue cells, secreted embryonic alkaline phosphatase reporter). In outline:
as §1

Setting [4] is: HEK-Blue cells overexpressing human TLR9, stimulated with ODN2006 5 nM, read-out: TLR 9 IC50.
Where [5] appears, read: HEK-Blue cells overexpressing human TLR9, stimulated with ODN2006 5 nM, 22 hour incubation, reporter readout.

On to `CC(C)CN1C2CCC1CC(N1CCC(c3ccc4nc(-c5ccc(S(C)(=O)=O)cc5)n(C)c4c3F)CC1)C2` (single isomer, unassigned) [Example 266, 7-fluoro-6-(1-(8-isobutyl-8-azabicyclo[3.2.1]octan-3-yl)piperidin-4-yl)-1-methyl-2-(4-(methylsulfonyl)phenyl)-1H-benzo[d]imidazole], for which the negative-log IC50 (pIC50) (in general, the IC50 on a negative log10 scale, so that one unit is a factor of ten) in assay [1] is less than 4.30; in assay [2], 4.73; in assay [3], 7.01; in assay [3] (setting [4]) it was 7.01.
Regarding `CS(=O)(=O)c1ccc(-c2nc3c(F)cc(C4CCN(C5CC6CCC(C5)N6CC5CC5)CC4)cc3n2C2CC2)cc1` (single isomer, unassigned) [Example 325, 1-cyclopropyl-6-(1-(8-(cyclopropylmethyl)-8-azabicyclo[3.2.1]octan-3-yl)piperidin-4-yl)-4-fluoro-2-(4-(methylsulfonyl)phenyl)-1H-benzo[d]imidazole], the pIC50 is less than 4.30 in assay [1], 5.09 in assay [2], 7.82 in assay [3] (setting [4]) and 7.82 in assay [3] (HEK-Blue human TLR9 reporter cells).
In the case of `Cn1c(-c2ccc(S(C)(=O)=O)cc2)nc2cc(C3CCN(C4CCN(C5COC5)CC4)CC3)c(F)cc21` [Example 244, 6-fluoro-1-methyl-2-(4-(methylsulfonyl)phenyl)-5-(1′-(oxetan-3-yl)-[1,4′-bipiperidin]-4-yl)-1H-benzo[d]imidazole], the pIC50 was less than 4.30 in assay [1], less than 4.30 in assay [2], 5.44 in assay [3] and 5.45 in assay [3] (setting [4]).
As for `Cc1cc(-c2ccc(N3CCC(N4CCCC4)CC3)cc2)cc2c1nc(-c1ccc(S(C)(=O)=O)cc1)n2C` [Example 367, 1,4-dimethyl-2-(4-(methylsulfonyl)phenyl)-6-(4-(4-(pyrrolidin-1-yl)piperidin-1-yl)phenyl)-1H-benzo[d]imidazole], the pIC50 was 5.72 in assay [1], 5.64 in assay [2], 6.29 in assay [3] (setting [5]) and 6.29 in assay [3] (setting [4]).
Regarding `CC(C)N1C2CCC1CC(N1CCC(c3ccc4nc(-c5ccc(S(C)(=O)=O)cc5)[nH]c4c3F)CC1)C2` (single isomer, unassigned) [Example 95, 7-fluoro-6-(1-(8-isopropyl-8-azabicyclo[3.2.1]octan-3-yl)piperidin-4-yl)-2-(4-(methylsulfonyl)phenyl)-1H-benzo[d]imidazole], the values for the pIC50 in assay [1], in assay [2] and in assay [3] (setting [5]) were less than 4.30, less than 4.30 and 7.54, respectively.
Regarding `Cc1cc(-c2ccc(N3CCN(C(C)C)CC3)cc2)cc2c1nc(-c1ccc(S(C)(=O)=O)cc1)n2C` [Example 86, 6-(4-(4-isopropylpiperazin-1-yl)phenyl)-1,4-dimethyl-2-(4-(methylsulfonyl)phenyl)-1H-benzo[d]imidazole], the pIC50 in assay [1] is less than 4.30; in assay [2] it was 5.28; in assay [3] (setting [5]), 6.52.
Consider `Cc1cc(-c2ccc(CN3CCN(C(C)C)CC3)cc2)cc2c1nc(-c1ccc(S(C)(=O)=O)cc1)n2C` [Example 413, 6-(4-((4-isopropylpiperazin-1-yl)methyl)phenyl)-1,4-dimethyl-2-(4-(methylsulfonyl)phenyl)-1H-benzo[d]imidazole], for which the pIC50 is 5.27 in assay [1], less than 4.30 in assay [2], 5.72 in assay [3] (setting [5]) and 5.73 in assay [3] (setting [4]).
For `Cn1c(-c2ccc(S(C)(=O)=O)cc2)nc2ccc(C3CCN(C4CC5CCC(C4)N5C4CCOCC4)CC3)c(F)c21` (centres unmarked) [Example 275, 7-fluoro-1-methyl-2-(4-(methylsulfonyl)phenyl)-6-(1-(8-(tetrahydro-2H-pyran-4-yl)-8-azabicyclo[3.2.1]octan-3-yl)piperidin-4-yl)-1H-benzo[d]imidazole], the pIC50 in assay [1] is less than 4.30; in assay [2], less than 4.30; in assay [3] it was 7.05; in assay [3] (setting [4]), 7.05.
`Cc1cc(-c2ccc(CN3CC4(C3)CN(C(C)C)C4)cc2)cc2c1nc(-c1ccc(S(C)(=O)=O)cc1)n2C` [Example 399, 6-(4-((6-isopropyl-2,6-diazaspiro[3.3]heptan-2-yl)methyl)phenyl)-1,4-dimethyl-2-(4-(methylsulfonyl)phenyl)-1H-benzo[d]imidazole]: the pIC50 is 5.57 in assay [1], 6.00 in assay [2], 7.01 in assay [3] (setting [5]) and 7.01 in assay [3] (setting [4]).
In the case of `Cn1c(-c2ccc(S(C)(=O)=O)cc2)nc2cc(F)c(C3CCN(C4CC5CCC(C4)N5CC4CC4)CC3)cc21` (centres unmarked) [Example 231, 6-(1-(8-(cyclopropylmethyl)-8-azabicyclo[3.2.1]octan-3-yl)piperidin-4-yl)-5-fluoro-1-methyl-2-(4-(methylsulfonyl)phenyl)-1H-benzo[d]imidazole], the pIC50 was less than 4.30 in assay [1], less than 4.30 in assay [2], 7.24 in assay [3] and 7.24 in assay [3] (setting [4]).
